Data reported in patent US8454991B2, “Method and device for photodynamic therapy” (Quest Pharmatech Inc., priority 2006, dated 2013).

Key:
EMT-6 tumor cells = assay: In vitro clonogenic assay (PDT phototoxic effect); assay type: cell-based; conditions: 2 hours incubation; for inhibition at 5 µM: Mus musculus
Method: The feasibility of using these alternative light sources as over the counter devices for topical PDT application is tested using an in vitro clonogenic assay to assess their ability to generate a phototoxic effect with SL-017, a known photosensitizer.
In vitro clonogenic assay. EMT-6 tumor cells are grown in culture in RPMI 1640 and plated onto Petri dishes. The photosensitizer SL-017 is added at a fixed concentration of 5 μM to the dishes and allowed to incubate for 2 hours, and then removed. The dishes are irradiated using the different two LED light sources and the orange (rhodamine 6G) chemiluminescent light source at pre-determined light doses. The EMT-6 cells are then re-plated and allowed to grow, for 5 to 7 days The number of surviving colonies in the control and treated plates are counted visually and compared.

mouse skin = assay type: in vivo, Male Balb/c mice
Method: The feasibility of using these alternative light sources as over the counter devices for topical PDT application is tested using an in vivo hair removal assay to assess their ability to generate a hair removal effect on mouse skin using SL-017, a known photosensitizer. Mouse strain. Male Balb/c mice of approximately 6 to 8 weeks of age weighing 16 to 18 grams were obtained from Charles River animal facility. The animals were allowed a minimum of 1 week to acclimatize to the facility prior to treatment. In vivo hair removal assay. The animals were anesthetized with a 0.1 ml intra peritoneal injection of 12 mg/ml sodium pentobarbital in 0.9% Saline. An approximately 1.5×1.5 cm square area on the back of each animal was shaved and the area treated with a 2% SL-017 topical gel for 60 minutes. The excess gel was removed from the area and it was covered with a template with a 1 cm diameter opening. The open area was treated with either 15 or 30 J/cm^2 of light from a LED flashlight. […] The mice were monitored once weekly for the re-growth of hair in the treated area. For the white LED, the treatment time required for the 15 J/cm^2 dose group was 5 minutes and 45 sec. while for the 30 J/cm^2 dose group was 11 minutes and 30 seconds. For the red LED, the treatment time required for the 15 J/cm^2 dose group was 45 minutes, and for the 30 J/cm^2 dose group was 90 minutes.

## COc1c2c3c4c(c(NCCCN(C)C)c(=O)c5c(O)cc(OC)c(c6c(OC)cc(O)c(c1=O)c63)c54)C=C(C)C2C(C)=O (stereo not shown) [SL-017]
EMT-6 tumor cells; EMT6, SL-017 5 μM, orange (rhodamine 6G) chemiluminescent light stick, 1 hour exposure
  inhibition at 5 µM: 31.3%
EMT-6 tumor cells; EMT6, light or radiation study, 2 h, SL-017 5 μM, red LED light (3 W), 0.1 J/cm^2
  inhibition at 5 µM: 100%
EMT-6 tumor cells; EMT6, light or radiation study, 2 h, SL-017 5 μM, red LED light (3 W), 0.25 J/cm^2
  inhibition at 5 µM: 100%
EMT-6 tumor cells; EMT6, light or radiation study, 2 h, SL-017 5 μM, red LED light (3 W), 0.4 J/cm^2
  inhibition at 5 µM: 100%
EMT-6 tumor cells; EMT6, light or radiation study, 2 h, SL-017 5 μM, white LED light (9 W), 0.5 J/cm^2
  inhibition at 5 µM: 98.6%
EMT-6 tumor cells; EMT6, light or radiation study, 2 h, SL-017 5 μM, white LED light (9 W), 1.0 J/cm^2
  inhibition at 5 µM: 100%
EMT-6 tumor cells; EMT6, light or radiation study, 2 h, SL-017 5 μM, white LED light (9 W), 2.0 J/cm^2
  inhibition at 5 µM: 100%
EMT-6 tumor cells; SL-017 5 μM, orange (rhodamine 6G) chemiluminescent light stick, 1 hour exposure
  Number of Colonies: 86.3
EMT-6 tumor cells; SL-017 5 μM, orange (rhodamine 6G) chemiluminescent light stick, 2 hour exposure
  Number of Colonies: 187.3
EMT-6 tumor cells; SL-017 5 μM, red LED light (3 W), 0.1 J/cm^2
  Number of Colonies: 0
EMT-6 tumor cells; SL-017 5 μM, red LED light (3 W), 0.25 J/cm^2
  Number of Colonies: 0
EMT-6 tumor cells; SL-017 5 μM, red LED light (3 W), 0.4 J/cm^2
  Number of Colonies: 0
EMT-6 tumor cells; SL-017 5 μM, white LED light (9 W), 0.5 J/cm^2
  Number of Colonies: 1.8
EMT-6 tumor cells; SL-017 5 μM, white LED light (9 W), 1.0 J/cm^2
  Number of Colonies: 0
EMT-6 tumor cells; SL-017 5 μM, white LED light (9 W), 2.0 J/cm^2
  Number of Colonies: 0
Mouse skin; 2% SL-017 topical gel for 60 minutes, red LED light, 30 J/cm^2
  delay in hair re-growth: 3 weeks
Mouse skin; 2% SL-017 topical gel for 60 minutes, white LED light, 15 J/cm^2
  re-growth of hair in the treated area versus controls: no differences in the re-growth of hair
Mouse skin; 2% SL-017 topical gel for 60 minutes, white LED light, 30 J/cm^2
  delay in re-growth of hair: < 1 week
Mouse skin; mouse, in vivo
  skin reaction post treatment at the treated site: erythema is observed
